In PubChem BioAssay (NCI):
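48-hour exposure; five concentrations; linearly interpolated endpoints. At the GI50, growth is halved. TGI: concentration producing complete growth inhibition.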

Assays:
Assay in all cases: NCI anticancer screen, dose series, 48 h
MDA-MB-435 = system: MDA-MB-435
HOP-62 NSCLC = system: HOP-62 NSCLC
OVCAR-4 ovarian = system: OVCAR-4 ovarian
SK-MEL-5 melanoma = system: SK-MEL-5 melanoma
CCRF-CEM leukemia = system: CCRF-CEM leukemia
HCT-15 colon = system: HCT-15 colon
PC-3 prostate = system: PC-3 prostate
K-562 leukemia = system: K-562 leukemia
SF-539 CNS = system: SF-539 CNS
OVCAR-5 ovarian = system: OVCAR-5 ovarian

| Structure (SMILES) | GI50 (MDA-MB-435) [µM] | TGI (MDA-MB-435) [µM] | GI50 (HOP-62 NSCLC) [µM] | TGI (HOP-62 NSCLC) [µM] | GI50 (OVCAR-4 ovarian) [µM] | TGI (OVCAR-4 ovarian) [µM] | GI50 (SK-MEL-5 melanoma) [µM] | TGI (SK-MEL-5 melanoma) [µM] | GI50 (CCRF-CEM leukemia) [µM] | TGI (CCRF-CEM leukemia) [µM] | GI50 (HCT-15 colon) [µM] | TGI (HCT-15 colon) [µM] | GI50 (PC-3 prostate) [µM] | TGI (PC-3 prostate) [µM] | GI50 (K-562 leukemia) [µM] | TGI (K-562 leukemia) [µM] | TGI (SF-539 CNS) [µM] | TGI (OVCAR-5 ovarian) [µM] | GI50 (SF-539 CNS) [µM] | GI50 (OVCAR-5 ovarian) [µM] |
| --- | --- | --- | --- | --- | --- | --- | --- | --- | --- | --- | --- | --- | --- | --- | --- | --- | --- | --- | --- | --- |
| COc1ccc(Nc2cc(C)nc(N3CCN(c4ccnc5cc(Cl)ccc45)CC3)n2)cc1 | 1.06 | 6.43 | 3.89 | > 100 | 1.76 | > 100 | 1.67 | 3.35 | 2.85 | > 100 | 2.06 | > 100 | 2.21 | > 100 | 2.34 | > 100 | – | – | – | – |
| CCC(Oc1ccc(OC)c2ccccc(=O)c12)C(=O)O (centres undefined) | – | – | – | > 100 | – | > 100 | – | > 100 | – | > 100 | – | > 100 | – | – | – | > 100 | > 100 | > 100 | – | – |
| Cc1cccc(Nc2cnc(N)nc2N)c1 | – | > 100 | – | > 100 | – | > 100 | – | > 100 | – | > 100 | – | > 100 | – | > 100 | – | > 100 | > 100 | – | – | – |
| Cc1ccc(-c2nc(N3CCCNCC3)c3oc(-c4ccc(C)cc4)nc3n2)cc1 | 1.78 | 3.17 | 8.78 | 24.3 | 2.11 | 4.67 | – | – | – | – | 1.49 | 2.96 | 1.51 | 2.91 | 0.946 | 2.68 | 3.29 | 3.17 | 1.76 | 1.75 |
| CC(C)c1cc(OCC(O)CO)cc(C(C)C)c1 (centres undefined) | – | – | – | > 100 | – | > 100 | – | > 100 | – | > 100 | – | > 100 | – | – | – | > 100 | > 100 | > 100 | – | – |
| COc1ccc(Nc2c3ccccc3nc3[nH]c4ccccc4c23)cc1 | 8.92 | > 50 | 8.71 | 23.2 | – | – | 5.52 | > 50 | – | – | 8.33 | > 50 | 7.87 | 28.9 | 7.17 | > 50 | 20 | > 50 | 6.5 | 26.7 |
| O=C1OC(c2ccccc2)=N/C1=C\c1cccc(F)c1 | – | > 100 | – | 92.6 | – | 94.9 | – | > 100 | – | 72.7 | – | > 100 | – | > 100 | – | > 100 | – | > 100 | – | – |
| COc1cc2c(c(OC3OC(CO)C(O)C(O)C3O)c1)C(=O)CC(c1ccc(O)cc1)O2 (centres undefined) | – | > 100 | – | – | – | > 100 | – | > 100 | – | – | – | > 100 | – | > 100 | – | > 100 | > 100 | > 100 | – | – |
| O=C1C2Nc3ccccc3SC2C(=O)N1c1ccccc1C(F)(F)F (centres undefined) | – | – | – | > 100 | – | > 100 | – | > 100 | – | > 100 | – | 65.5 | – | – | – | > 100 | 41 | > 100 | – | – |
| O=C(O)CCSC(=O)Nc1ccc(N=Nc2ccccc2)cc1 | – | – | – | > 100 | – | > 100 | – | > 100 | – | > 100 | – | > 100 | – | – | – | > 100 | > 100 | > 100 | – | – |
| COc1ccc2nc(NC(=O)C(=O)C(C#N)c3ccc(Cl)c(Cl)c3)sc2c1 (centres undefined) | – | – | – | > 100 | – | > 100 | – | > 100 | – | > 100 | – | > 100 | – | – | – | > 100 | > 100 | > 100 | – | – |
| CN(/N=N/c1nc(OCc2ccccc2)c2[nH]cnc2n1)C(=O)Oc1ccc([N+](=O)[O-])cc1 | 12.4 | 39.8 | 28.8 | > 50 | 22.8 | > 50 | 6.89 | 16.3 | – | – | 8.9 | 20 | 10.8 | 27.1 | 11.9 | > 50 | 28.8 | > 50 | 9.88 | 11.5 |
| Cc1cccc2nc3cccc(C(=O)NCCN(C)C)c3nc12 | – | – | – | 1.39 | – | 4.84 | – | 1.97 | – | > 100 | – | 2.19 | – | – | – | 10.9 | 1.21 | 5.97 | – | – |
| COc1ccc(OC)c(Nc2nc(-c3c(C)nc4sccn34)cs2)c1 | > 100 | > 100 | 8.46 | 63.4 | 14.2 | > 100 | 34.9 | > 100 | > 100 | > 100 | > 100 | > 100 | 18.1 | > 100 | – | – | > 100 | > 100 | 48.8 | > 100 |
| O=C1OC(OCC#CCOC2OC(=O)C(Cl)=C2Cl)C(Cl)=C1Cl (centres undefined) | – | 27.2 | – | 26.7 | – | – | – | 43.4 | – | 4.63 | – | 27.3 | – | 27.1 | – | – | 31.8 | 33.2 | – | – |
| C=C1[C@@H]([C@@]2(C)C=CC(=O)C(C)(C)[C@@H]2CC(=O)OC)CC[C@@]2(C)C(c3ccoc3)OC(=O)[C@H]3O[C@]132 (some centres undefined) | – | > 100 | – | – | – | > 100 | – | > 100 | – | > 100 | – | > 100 | – | > 100 | – | – | > 100 | > 100 | – | – |
